In article PMC4242536, “Cell Surface Protein Disulfide Isomerase Regulates Natriuretic Peptide Generation of Cyclic Guanosine Monophosphate” (PLoS ONE, 2014):
One block for each molecule: values may come before it.

Columns and labels:
PDI full-length protein = molecular target: T1, PDI full-length protein (Homo sapiens, UniProt P07237); test: Surface Plasmon Resonance binding to immobilized PDI (Biacore T200); details: SPR, 25°C, pH 7.4
T1 construct: PDI full-length protein (Sigma, St. Louis, MO) was immobilized onto a CM5 sensorchip; purchased Sigma (St. Louis, MO)
T1 sequence (P07237 18-508, species assumed): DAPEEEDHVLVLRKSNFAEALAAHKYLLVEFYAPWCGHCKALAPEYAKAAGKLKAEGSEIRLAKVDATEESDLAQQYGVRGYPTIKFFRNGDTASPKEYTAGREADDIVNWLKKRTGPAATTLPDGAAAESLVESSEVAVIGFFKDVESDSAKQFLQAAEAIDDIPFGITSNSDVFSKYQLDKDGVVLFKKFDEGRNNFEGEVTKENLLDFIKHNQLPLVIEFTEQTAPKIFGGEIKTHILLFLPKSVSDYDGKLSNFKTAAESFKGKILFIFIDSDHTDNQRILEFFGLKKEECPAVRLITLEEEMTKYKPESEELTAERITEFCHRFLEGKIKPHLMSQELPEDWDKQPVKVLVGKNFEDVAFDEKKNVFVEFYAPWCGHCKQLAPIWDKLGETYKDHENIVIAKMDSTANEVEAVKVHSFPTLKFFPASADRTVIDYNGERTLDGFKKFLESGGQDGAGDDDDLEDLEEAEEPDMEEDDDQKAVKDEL
Experimental: SPR measurements were performed at 25°C on a Biacore T200 biosensor (GE Healthcare). PDI full-length protein (Sigma, St. Louis, MO) was immobilized onto a CM5 sensorchip using an amine coupling immobilization kit (GE Healthcare) as instructed by the supplier. After the chip was washed with Biacore running buffer (150 mM NaCl, and 0.005% (w/v) Polysorbate 20, 10 mM HEPES, pH 7.4), peptides ANP, BNP or CNP were injected at 40 ul/min for 30 s and allowed to dissociate for 150 s. Residual bound peptide was desorbed with 350 mM NaCl. Binding kinetics were derived from sensorgrams using Bioevaluation software version 4.1.1 (GE Healthcare).

[1] = system: human mesangial cells (HMCs); test: Total cellular cGMP (BIOTRAK enzyme immunoassay) in HMCs stimulated by natriuretic peptides; format: cell-based
Experimental: (§1) Human umbilical vein endothelial cells (HUVECs), human aortic smooth muscle cells (HASMCs), and pig kidney epithelial cells (LLC-PK1) were purchased from American Type Culture Collection (ATCC) (Manassas, VA). HUVECs were cultured in endothelial growth medium (EGM-2) with supplements (Lonza, Hopkinton, MA). HASMCs were cultured in smooth muscle cells growth medium (SmBM) with supplements (Lonza). Primary human glomerular mesangial cells (HMCs) (Cell Systems Inc., Kirkland, WA) were grown in mesangial growth media with supplements (Cell Systems Inc.). LLC-PK1 cells were grown in Dullbecco's Modification of Eagle's Medium (DMEM) containing 10% FBS. All cell cultures were grown at 37°C in humidified 5% CO2 air. Primary cells from passage 3 to 7 were used in this study.
(§2) Total cellular cGMP was measured using the BIOTRAK cGMP enzyme immunoassay system Kit (GE Healthcare) as previously described. Briefly, cells were plated in 96-well plates and incubated overnight to reach 80% confluence. The cells were stimulated with different concentrations of synthetic natriuretic peptides dissolved in basic culture medium containing 0.5 mM IBMX for 30 minutes, then lysed. All samples were completed in triplicate for each experiment. The amount of cGMP was calculated from a standard curve that was generated in parallel. […]

HMCs, HASMCs, and HUVECs = test: Total cellular cGMP in HMCs, HASMCs and HUVECs (summary over cells); format: cell-based, human
Experimental: (§3) Human umbilical vein endothelial cells (HUVECs), human aortic smooth muscle cells (HASMCs), and pig kidney epithelial cells (LLC-PK1) were purchased from American Type Culture Collection (ATCC) (Manassas, VA). HUVECs were cultured in endothelial growth medium (EGM-2) with supplements (Lonza, Hopkinton, MA). HASMCs were cultured in smooth muscle cells growth medium (SmBM) with supplements (Lonza). Primary human glomerular mesangial cells (HMCs) (Cell Systems Inc., Kirkland, WA) were grown in mesangial growth media with supplements (Cell Systems Inc.). LLC-PK1 cells were grown in Dullbecco's Modification of Eagle's Medium (DMEM) containing 10% FBS. All cell cultures were grown at 37°C in humidified 5% CO2 air. Primary cells from passage 3 to 7 were used in this study. Total cellular cGMP was measured using the BIOTRAK cGMP enzyme immunoassay system Kit (GE Healthcare) as previously described. Briefly, cells were plated in 96-well plates and incubated overnight to reach 80% confluence. The cells were stimulated with different concentrations of synthetic natriuretic peptides dissolved in basic culture medium containing 0.5 mM IBMX for 30 minutes, then lysed. All samples were completed in triplicate for each experiment. The amount of cGMP was calculated from a standard curve that was generated in parallel. […]

[2] = system: pig kidney epithelial cells (LLC-PK1); test: Total cellular cGMP (BIOTRAK enzyme immunoassay) in LLC-PK1 cells stimulated by ANP; format: cell-based
Experimental: as §1, §2

PDI = test: Diphtheria toxin sensitivity assay (cell survival) in HMCs; format: cell-based, human; details: DT 30 minutes then 72 hours, p<0.05, 3 independent experiments
[3] = system: human umbilical vein endothelial cells (HUVECs); test: Total cellular cGMP (BIOTRAK enzyme immunoassay) in HUVECs stimulated by natriuretic peptides; format: cell-based; details: 30 minutes with NP, 0.5 mM IBMX, p ≤0.05 vs samples without bacitracin, 3 independent experiments in triplicate
Experimental: as §3

[4] = system: human aortic smooth muscle cells (HASMCs); test: Total cellular cGMP (BIOTRAK enzyme immunoassay) in HASMCs stimulated by natriuretic peptides; format: cell-based; details: 30 minutes with NP, 0.5 mM IBMX, p ≤0.05 vs samples without bacitracin, 3 independent experiments in triplicate
Experimental: as §3

GC-B = test: Western blot of GC-B expression in HMCs; format: cell-based, human; details: HMCs with and without bacitracin
Experimental: as §1, with “study. Conventional western blotting was used to identify PDI in cellular proteins and was described previously.” for “study.”

Molecule: CC[C@H](C)[C@@H]1NC(=O)[C@H](CCCNC(=N)N)NC(=O)[C@H](CC(=O)O)NC(=O)[C@H](CCSC)NC(=O)[C@H](CCCCN)NC(=O)[C@H](CCCNC(=N)N)NC(=O)CNC(=O)[C@H](Cc2ccccc2)NC(=O)[C@@H](NC(=O)CNC(=O)[C@H](CO)NC(=O)CNC(=O)[C@H](CCC(N)=O)NC(=O)[C@@H](NC(=O)[C@H](CCSC)NC(=O)[C@H](CCCCN)NC(=O)[C@@H]2CCCN2C(=O)[C@@H](N)CO)C(C)C)CSSC[C@@H](C(=O)N[C@@H](CCCCN)C(=O)N[C@H](C(=O)N[C@@H](CC(C)C)C(=O)N[C@@H](CCCNC(=N)N)C(=O)N[C@@H](CCCNC(=N)N)C(=O)N[C@@H](Cc2c[nH]cn2)C(=O)O)C(C)C)NC(=O)CNC(=O)[C@H](CC(C)C)NC(=O)CNC(=O)[C@H](CO)NC(=O)[C@H](CO)NC(=O)[C@H](CO)NC(=O)[C@H](CO)NC1=O [BNP, B-type natriuretic peptide]
- binding to immobilized PDI (in words) (PDI full-length protein; 0–1600 nM ANP and BNP, 200 nM comparison of NPs): highest binding affinity with PDI and displayed dose-dependent increases in binding

- affinity for PDI (in words) (PDI full-length protein; compared with ANP and BNP, Fig. 5D): much lower affinity
Molecule: C-type natriuretic peptide [CNP]

Molecule: bacitracin
- inhibitory effect on cGMP levels in the presence of protease inhibitors ([1]; HMCs stimulated by ANP and CNP, with or without protease inhibitor cocktail, 3 independent experiments): did not lose its inhibitory effects on cGMP levels
- attenuation of ANP, BNP, and CNP-mediated increases in cGMP ([1]; HMCs, 30 minutes with NP, 0.5 mM IBMX, p ≤0.05 vs samples without bacitracin, 3 independent experiments in triplicate): significantly attenuated
- dose dependence of the inhibitory effect on NP-mediated cGMP (HMCs, HASMCs, and HUVECs; data not shown, HMCs, HASMCs and HUVECs): dose dependent
- effect on NP cGMP generation compared to RL90 or siRNA knockdown (HMCs, HASMCs, and HUVECs; in words): greater effect
- inhibition of ANP-mediated increases in cGMP ([2]; LLC-PK1 cells (no detectable PDI), p>0.05): did not inhibit
- cell survival on diphtheria toxin (inhibition of PDI-dependent DT toxicity) (PDI): inhibited PDI function
- cell survival on diphtheria toxin (inhibition of PDI-dependent DT toxicity) (PDI; listed as Bacitracin): increased cell survival significantly
- attenuation of ANP, BNP, and CNP-mediated increases in cGMP [3]: significantly attenuated
- attenuation of ANP, BNP, and CNP-mediated increases in cGMP [4]: significantly attenuated
- effect on GC-B expression (GC-B): no difference in GC-B expression

Molecule: protein disulfide isomerase [PDI]
- increase of ANP stimulated cGMP production ([2]; LLC-PK1 cells, purified PDI added, compared with cells without PDI, second of two values (condition not given, Fig. 3C)): 39%
